Measurements published in patent US20110136162A1, “Compositions and Methods for Functionalized Patterning of Tissue Engineering Substrates Including Bioprinting Cell-Laden Constructs for Multicompartment Tissue Chambers” (Drexel University, priority 2009, published 2011).

Test system: Human hepatocytes (HepG2) and human melanoma cells (M10)
Assay: Micronuclei in binucleated cells after γ-radiation, cells treated with amifostine
Format: cell-based
Conditions: binucleated cells after 60 hours
Description: Human hepatocytes (HepG2) and human melanoma cells (M10) were cultured in α-Minimum Essential Medium (Gibco) at 37° C. in 5% CO2. Cells were mixed with BME (i.e., Basement Membrane Matrix Phenol Red-free (BD Biosciences Matrigel)) chilled to 4° C. and printed onto a glass microfluidic chip having a PDMS substrate (see FIGS. 13 and 14) using a temperature-controlled BME printing apparatus 0-5° C. (see, for example, FIGS. 9 and 10).
After the 4 hour treatment with amifostine, the cells were exposed to 2 Grays of γ-radiation from a cesium source. […] Then, the cells were incubated and allowed to divide for 60 hours and examined for evidence of radiation damage.
Binucleated cells were examined for the presence of micronuclei as evidence of radiation damage.

NCCCNCCSP(=O)(O)O [amifostine]
radiation-treated cells found to have micronuclei (microfluidic chip, 1 mM amifostine perfusion 4 hours before and 90 minutes after 2 Grays γ-radiation): about 3%
radiation-treated cells found to have micronuclei (tissue culture plate, 1 mM amifostine 4 hours before and 90 minutes after 2 Grays γ-radiation): about 4%
